Measured values taken from patent publication US8895501B2, “Eye-drop vaccine containing copolymer 1 for therapeutic immunization” (Yeda Research and Development Co. Ltd., priority 2003, dated 2014).
“And” between values parts separate entries of the source, which are not always exact repeats. Equal values may be shown once.

Legend:
[1] = test system: retinal ganglion cells (RGCs); test: Chronic high IOP model (laser-induced), IOP-induced RGC death; assay type: in vivo, rat; settings: for % of death of RGCs: non-thymectomized rats; for % of death of RGCs / loss of RGCs (% death): treatment started immediately after IOP elevation (Cop-1 single injection, brimonidine daily), 3 weeks; for loss of RGCs (% death): thymectomized (T cell-deprived) rats
Source text: (§1) Inbred adult male Lewis and Sprague-Dawley (SPD) rats (8 weeks; average weight 300 g) were supplied by the Animal Breeding Center at The Weizmann Institute of Science (Rehovot, Israel). The rats were maintained in a light- and temperature-controlled room and were matched for age and weight before each experiment. All animals were handled according to the regulations formulated by IACUC ([…]).
Blockage of aqueous outflow causes an increase in IOP, which results in RGC death (Bakalash et al., 2002; Schori et al., 2001; Jia et al., 2000a; Levkovitch-Verbin et al., 2002). […] Rats were deeply anesthetized by intramuscular injection of ketamine hydrochloride (50 mg/kg) and xylazine hydrochloride (0.5 mg/kg). A slit lamp emitting blue-green argon laser irradiation (Haag-Streit, Köniz, Switzerland) was used to treat the right eye of the anesthetized rat with 80 to 120 applications directed toward three of the four episcleral veins and toward 270° of the limbal plexus. The laser beam was applied with a power of 1 W for 0.2 seconds, producing a spot size of 100 μm at the episcleral veins and 50 μm at the limbal plexus. At a second laser session 1 week later, the same parameters were used, except that the spot size was 100 μm in all applications. Irradiation was directed toward all four episcleral veins and 360° of the limbal plexus (Schori et al. 2001).
(§2) Eyes from untreated rats were used as a control. RGCs were counted by an observer who was blinded to the identity of the retinas.
Rats with either laser-induced increase in IOP or acute IOP elevation were immunized with Cop 1 (100 μg) (Teva Pharmaceutical Industries Ltd., Petach Tikva, Israel) emulsified in 2.5 mg/ml of CFA in a total volume of 100 μl (Kipnis et al., 2000). Each animal was vaccinated subcutaneously at the root of the tail.
(§3) Cop-1 in PBS was given at different concentrations and at different time points after the primary insult subcutaneously. Topical administration of Cop-1 was done after immersing the substance in PBS at a concentration of 20 mg/ml. Since each drop was of 50 μl, we administered 1 drop every 5 minutes for a total of 5 drops in 25 minutes.

[2] = test system: retinal ganglion cells (RGCs); test: Acute transient high IOP model, IOP-induced RGC death; assay type: in vivo, Lewis rats
Source text: as §1
The infusion bag was placed 1 meter above the rat's head, creating a closed loop circulation. High IOP was induced for exactly 1 hour after which the needle was removed from the eye and the hole was self-sealed.
as §2, §3

| Compound | % of death of RGCs [1] | loss of RGCs (% death) [1] | % of RGC death ([1]; Cop-1 emulsified in CFA, day of first laser plus 2, 6 and 9 weeks later, retinas excised 12 weeks after first laser, n=5) | % of RGC death ([1]; Cop-1 emulsified in CFA, immunized on day of first laser, retinas excised 3 weeks later, n=7) | % of RGC death ([1]; adjuvant-free 500 μg, daily injections for 7 days starting on day 0, retinas excised 3 weeks later) | % of RGC death ([1]; adjuvant-free 500 μg, single injection on day 7 after first laser, retinas excised 3 weeks later) | % of RGC death ([1]; adjuvant-free, subcutaneous, 100 μg on first day of laser treatment) | % of RGC death ([1]; adjuvant-free, subcutaneous, 250 μg on first day of laser treatment) | % of RGC death ([1]; adjuvant-free, subcutaneous, 500 μg on first day of laser treatment) | RGC protection 6 weeks after IOP was first elevated, comparison of regimens ([1]; adjuvant-free, two injections (day 0 and 3 weeks later) versus a single injection after 3 weeks) | number of RGCs ([1]; eye drops without adjuvant, 5 mg Cop-1, assessed 3 weeks after pressure elevation, p<10^-5) | Average death rate of RGCs ([2]; 5 mg Cop-1 over 25 minutes immediately after 1 hour of elevated IOP, two weeks after IOP elevation, n=4) | RGC protection, eye drops applied to the eye contralateral to the elevated pressure ([2]; Cop-1 eye drops to contralateral side versus ipsilateral) | loss of RGCs ([2]; Cop-1 without adjuvant, 2 weeks after transient IOP elevation (1 hour)) |
| --- | --- | --- | --- | --- | --- | --- | --- | --- | --- | --- | --- | --- | --- | --- |
| Brc1c(NC2=NCCN2)ccc2nccnc12 [brimonidine] | 34.5±3.51% | 38±7% |  |  |  |  |  |  |  |  |  |  |  |  |
| glatiramer acetate [Cop-1] | 23.5±5.7% | 55±5.2% and 55% | 33.7±1.4% | 12.6±5% | 41.41±6% | 19.1±14.7% | 44±6% | 50.5±8% | 26.6±10% | more effective than a single injection after 3 weeks | 150 RGCs | 31.12%±3.22 | same effect as when given ipsilaterally | 20% |
